We go through four compounds from patent US20240390487A1, “TLR AGONISTS FOR REDUCING ACTIVATION-INDUCED PD-1 EXPRESSION ON T CELLS AND METHODS OF USE” (WISCONSIN ALUMNI RESEARCH FOUNDATION, priority 2016, published 2024).

For the assay, the system named is Purified DC. Nature of the assay: IL-12 p70 ELISA of culture supernatant of TLR-agonist-stimulated DC. The format is cell-based, mice. The note with it: 24 hours, IL12 p70 by ELISA, versus media alone. The method, then:
FIGS. 14A-14D. Changes in PD-1 expression following TLR stimulation are mediated by IL-12 secreted from APCs. Panel A: Purified OT-1 T cells (T), B cells (B), or dendritic cells (DC) were activated with SIINFEKL peptide (SEQ ID NO:1, OVA) or with a non-specific peptide (NS) in the presence of either TLR1/2 (TLR1/2) agonist, TLR7 agonist (TLR7), or media alone. After 24 hours, cells were washed and co-cultured with naïve purified OT-1 CD8+ T cells for an additional 24 hours and then assessed for expression of the indicated surface receptors (4-1BB, CD3, PD-1, LAG3, CTLA-4, and TIM3) by flow cytometry. Shown is the MFI for each marker, with samples assessed in triplicate. Panel B: Purified DC were stimulated in the presence of TLR1/2 agonist, TLR7 agonist, or media alone. After 24 hours, media was collected and used for culture of purified OT-1 CD8+ T cells with naïve DC in the presence of SIINFEKL peptide (SEQ ID NO:1, OVA) or non-specific (NS) peptide. After 24 hours, cells were assessed for expression of the indicated surface receptors (4-1BB, PD-1, LAG3, and CTLA-4) by flow cytometry. Shown is mean and standard error of the MFI for each marker, with samples assessed in triplicate. Panel C: Purified DC were stimulated in the presence of TLR1/2 agonist (Pam3), TLR3 agonist (PolyIC), TLR4 agonist (MPLA), TLR7/8 agonists (Gard, R848), TLR9 agonist (ODN), or media only (none) for 24 hours. Culture supernatant was then evaluated for the presence of IL12 p70 by ELISA. Asterisks indicate significant (p<0.05) IL-12 release compared to media alone. Panel D: Purified DC were stimulated in the presence of TLR1/2 agonist, TLR7 agonist, or media alone. After 24 hours, medium was collected and used for culture of purified OT-1 CD8+ T cells with naïve DC in the presence of SIINFEKL peptide (SEQ ID NO:1, OVA) and, where indicated, 0.1 ng/ml IL-12 or 0.12 μg/mL anti-IL-12 antibody. After 24 hours, cells were assessed for expression of the indicated surface receptors (4-1BB, PD-1, LAG3, and CTLA-4) by flow cytometry. Shown is mean and standard error of the MFI for each marker, with samples assessed in triplicate and are representative of two similar experiments. Asterisks indicate P<0.01.
Changes in PD-1 expression following TLR stimulation are mediated by IL-12 secreted from APCs: TLR are expressed by both T cells and professional APC. To determine if the effects on T-cell checkpoint expression were mediated by direct effects of TLR ligands on T cells or APC, purified OT-1 T cells were activated with SIINFEKL peptide (SEQ ID NO:1) alone or in the presence of TLR1/2 or TLR7 agonist, or with purified DC or B cells pre-treated with TLR agonists. After 24 hours cells were evaluated for expression of 4-1BB, CD3, PD-1, LAG-3, CTLA-4, and TIM-3. […]
Background: In an ELISA, binding on a coated surface is turned into a signal by an enzyme label.

`CCNCc1nc2c(N)nc3ccccc3c2n1CC(C)(C)O` [Gardiquimod]: the “secretion of IL-12 by DC” value is reported as “greatest secretion”. For Monophosphoryl Lipid A [MPLAs] the value was “No significant secretion”.

Turning to Pam3CSK4, the “secretion of IL-12 by DC” value was “greatest secretion”.

For the compound Poly(I:C) [PolyI:C], the “secretion of IL-12 by DC” value is listed as “No significant secretion”.
